Like-named read-outs stand apart in the source and are kept apart here.
Columns and labels:
[1] = system: P. falciparum; conditions: Ancelin and Vial, 1986; read-out: IC50, lethal to P. falciparum in vitro; cited from earlier work
[2] = system: promastigote form of L. major; assay: Growth inhibition of Leishmania major promastigotes; assay type: cell-based; conditions: read-out: IC50 of choline analogs in Leishmania major, WT
Procedure: For those drugs, IC50 values were determined.

[3] = system: S. cerevisiae; assay: Liquid growth inhibition assay of S. cerevisiae (OD600); assay type: cell-based, Saccharomyces cerevisiae; conditions: for Inhibition of S. cerevisiae growth (in words): structure-activity comparison, Examples 2-4
Procedure: Strains and Growth Conditions: Wild-type (BY4741: Mata his3Δ1 leu2Δ0 met15Δ0 ura3Δ0) and mutant (hnm1Δ, psd1Δ, cki1Δ, pem1Δ, ept1Δ, cpt1Δ, eki1Δ, psd2Δ, pct1Δ, ect1Δ, pem2Δ) S. cerevisiae strains used in this study were purchased from Research Genetics (Invitrogen, USA). These strains were grown on YPD (1% yeast extract, 2% dextrose and 2% peptone) or synthetic complete medium (SD, 1.7% yeast nitrogen base, 5% ammonium sulfate and 2% dextrose). The Nigerian strain of P. falciparum was propagated in human red blood cells at 4% hematocrit by the method of Trager and Jensen (1976). Plate growth assays were performed by growing wild-type and mutant yeast strains in YPD to mid-log phase. Cultures were serially diluted 1:10 starting with a density of 3×10^7 cells/ml. The growth of cells was monitored by spotting 3 μl of each dilution onto solid medium in the absence or presence of 5 μM of G25.
Twenty-one analogs including first, second and third generation (E2a, E6, E9, E13, E24, F4, G2, G4, G5, G14, GI5, G25, H5, L1, L4, M34, M53, MS1, T3 and T4) compounds (provided by Dr. Henri Vial, City, Country) were tested (FIG. 4). The choice of the compounds was such that they represent all possible structural features introduced during the optimization process for enhancing antimalarial activity as determined using the combinatorial chemistry techniques.
The antimalarial drug G25 inhibits the growth of Saccharomyces cerevisiae. […] Growth inhibition was assessed by measuring the OD600 and comparing it to that of the wild-type strain grown under the same conditions in the absence of the compound. […] This IC50 value is in the range of the predicted intracellular concentration of G25 in P. falciparum due to the accumulative properties inside the infected erythrocytes.

[4] = system: C. albicans strain BWP17; assay: Growth inhibition of C. albicans in vitro; assay type: cell-based, Candida albicans; conditions: read-out: IC50, C. albicans proliferation
Procedure: G15, E24 and C35 inhibited at higher concentrations (>10 μM).

[5] = system: P. falciparum-infected erythrocytes; conditions: after 3 h incubation; cited from earlier work
[6] = system: wild-type S. cerevisiae
Procedure: (§1) Uptake Assays: Yeast strains were grown in synthetic complete medium supplemented as required to maintain cell growth to an optical density of 0.55-0.65 at 600 nm. Cells were harvested by centrifugation at 3,200×g for 10 min at 4° C., washed twice in cold PBS and resuspended in nitrogen-free medium (SD without ammonium sulfate). […] After 3 min incubation at 30° C. with shaking, transport was immediately stopped by filtration through Whatman GF/C glass microfiber paper. The filters were washed three times with 5 ml ice-cold PBS, air dried, and analyzed in a scintillation counter. For time course uptake, 3-4×10^7 cells were incubated at 30° C. in 1 ml of nitrogen-free medium in the presence of 25 nM [^3H]-T16 (69 Ci/mmol) for different time periods (1, 2, 3, 4, 5, 7, 10 and 15 min) after which 5 ml of cold PBS was added to stop the reaction. Kinetic parameters were determined after 4 min of incubation at 30° C. in the presence of [^3H]-T16 at concentrations ranging from 25 nM to 75 μM (69 Ci - 23 mCi/mol). The samples were centrifuged at 4° C. for 10 min at 1,200×g, the supernatants were discarded and the cells were then resuspended in 5 ml of cold PBS. The reaction was terminated by filtering the cell suspension through GF/C membranes that were pretreated with 15 ml of 0.05% polyethyleneimine (PEI). The filters were washed twice with 5 ml of cold PBS, air dried, and analyzed in a scintillation counter. The cellular accumulation ratio (CAR) was calculated as previously described for T16 and G25 (Biagini, et al., 2003; Wengelnik, et al., 2002).

[7] = system: hnm1Δ S. cerevisiae strain lacking the choline transporter gene HNM1; assay: [3H]-T16 transport in hnm1 deletion strain; assay type: cell-based, Saccharomyces cerevisiae; conditions: 4 min, 30° C.
Procedure: as §1, with “The samples were centrifuged at 4° C. for 10 min at 1,200×g, the supernatants were discarded and the cells were then resuspended in 5 ml of cold PBS. The reaction was terminated by filtering the cell suspension through GF/C membranes that were pretreated with 15 ml of 0.05% polyethyleneimine (PEI).” left out

[8] = system: choline transport in the wild-type strain of S. cerevisiae; assay: [methyl-3H]-choline uptake in wild-type S. cerevisiae; assay type: cell-based, Saccharomyces cerevisiae; conditions: 20-fold excess over [methyl-3H]-choline
Procedure: as §1

[9] = system: P. falciparum; assay: P. falciparum growth in vitro (antimalarial activity); assay type: cell-based, Plasmodium falciparum; conditions: predicted by QSAR and confirmed experimentally; read-out: IC50, in vitro anti-malarial activity
[10] = cited from earlier work

C[N+](C)(C)CCCCCCCCCC[N+](C)(C)C [DMA, decamethonium]
IC50 [1]: 1000 nM

CCCCCCCCCC[N+](C)(C)C [DTMA, decyltrimethylammonium]
IC50 [1]: 700 nM

CCCCCCCCCCCC[N+](C)(C)C.[Br-] [E6]
IC50 [2]: 2150 nM | Inhibition of S. cerevisiae growth (in words) [3]: not an effective drug | IC50, growth of S. cerevisiae ([3]; wild-type W303 and BY4741, 10^5 cells/ml, YPD, 30° C., 24 h): high μM range

CCCCCCCCCCCCCCCCCC[N+](C)(C)C.[Cl-] [E9]
IC50 [2]: 110 nM | Inhibition of S. cerevisiae growth (in words) [3]: inhibited | IC50 ([3]; wild-type W303 and BY4741, 10^5 cells/ml, YPD, 30° C., 24 h, read-out: IC50, growth of S. cerevisiae): 250 to 500 nM | IC50 [4]: ~1000 nM

CCCCCCCCCCCC[N+](CCC)(CCC)CCC.[Br-] [E13]
IC50 [2]: 350 nM | Inhibition of S. cerevisiae growth (in words) [3]: no improvement

CCCCCCCCCCCC[N+]1(C)CCCC1.[Br-] [E24]
IC50 [2]: 700 nM

CCCCCCCCCCCC[N+](C)(C)CCO [F4]
IC50 [2]: 4100 nM

C[N+](C)(CCO)CCCCCCCCCCCCCCCC[N+](C)(C)CCO.[Br-].[Br-] [H5]
Inhibition of S. cerevisiae growth (in words) [3]: better efficacy | IC50 [4]: ~5000 nM

C[N+]1(C)CCOC(O)(c2ccc(-c3ccc(C4(O)C[N+](C)(C)CCO4)cc3)cc2)C1 (centres unmarked) [HC3, hemicholinium 3]
IC50 [1]: 4000 nM

N=C(N)CCCCCCCCCCCCC(=N)N [M34]
IC50 [2]: 3570 nM

CCc1sc[n+](CCCCCCCCCCCC[n+]2csc(CC)c2C)c1C.[I-].[I-] [T16, 1, 12-dodecanemethylene bis[4-methyl-5-ethylthiazolium]diiodide]
cellular accumulation ratio (CAR) [5]: ~500 | cellular accumulation ratio (CAR) in yeast [6]: less than 7 | Km ([6]; read-out: apparent Km of transport, wild-type, 4 min, 30° C., Lineweaver-Burk): 5.05 ± 0.26 µM | time during which uptake was linear ([6]; wild-type, 30° C., 25 nM): 12 min | maximum velocity Vmax of transport ([6]; wild-type, 4 min, 30° C.): 0.98±0.48 pmol/min×10^7 cells | Km [7]: 7.45 ± 1.98 µM | Vmax of transport [7]: 0.76±0.21 pmol/min/10^7 cells | inhibition of choline transport [8]: 26% | IC50 ([3]; wild-type strain BY4741, 1×10^4 cells/ml, liquid medium, 30° C., 16 h, read-out: IC50, inhibition of yeast growth): ~4000 nM | IC50 [9]: ~16 nM

Amphotericin B
half-life ([10]; IV infusion): about 2 weeks | renal impairment, share of patients ([10]; patients): 80%

From patent US20060025458A1, “Alkylammonium compounds as antifungal and antitrypanosomal agents” (University of Connecticut, priority 2004, published 2006)
